Results: patent publication US20250344695A1, “METHOD FOR PEST CONTROL” (priority 2024, published 2025)
Values after ≈ are worked out from the molar mass of the structure shown.

Key:
[1] = test system: confused flour beetle, Tribolium confusum; experiment: chlorobenzene fumigation in 1.9-liter jars, confused flour beetle adults; type: in vivo; details: 21° C.
Procedure: (§1) Example 1: Chlorobenzene fumigations were conducted for control of six insect species and one mite species and they were: rice weevil, Sitophilus oryzae (Coleoptera: Curculionidae), confused flour beetle, Tribolium confusum (Coleoptera: Tenebrionidae), navel orangeworm, Amyelois transitella (Lepidoptera: Pyralidae), spotted wing drosophila, Drosophila suzukii (Diptera: Drosophilidae), western flower thrips, Frankliniella occidentalis (Thysanoptera: Thripidae), eastern subterranean termite, Reticulitermes flavipes (Blattodea: Rhinotermitidae), and ham mite, Tyrophagus putrescentiae (Schrank) (Acarina: Acaridae) (FIG. 2). Most fumigations were conducted in 1.9-liter glass jars. Confused flour beetle and rice weevil were fumigated in 1.9-liter jars and in 60-liter chambers with corn. Navel orangeworm was fumigated in 21.8 L chambers modified from pressure cookers. […]
(§2) A filter paper disc was clipped on the port underneath the lid with a metal clip. […] Insect mortality was then scored. Chlorobenzene doses were recorded as microliter liquid per liter of chamber space (ul/l).
(§3) Confused flour beetle and rice weevil adults were collected separately in plastic vials from their prospective colonies. […] Chlorobenzene vapor concentrations were measured during fumigation using detector tubes. After fumigation, insects were kept at room temperature overnight before being scored for mortality. […]

[2] = test system: rice weevil, Sitophilus oryzae; experiment: chlorobenzene fumigation in 1.9-liter jars, rice weevil adults; type: in vivo; details: 21° C.
Procedure: as §1, §2, §3

[3] = test system: spotted wing drosophila, Drosophila suzukii; experiment: chlorobenzene fumigation in 1.9-liter jars, spotted wing drosophila flies; type: in vivo; details: 50 μl/l dose, 3 h at 21° C.
Procedure: (§4) Example 1: Chlorobenzene fumigations were conducted for control of six insect species and one mite species and they were: rice weevil, Sitophilus oryzae (Coleoptera: Curculionidae), confused flour beetle, Tribolium confusum (Coleoptera: Tenebrionidae), navel orangeworm, Amyelois transitella (Lepidoptera: Pyralidae), spotted wing drosophila, Drosophila suzukii (Diptera: Drosophilidae), western flower thrips, Frankliniella occidentalis (Thysanoptera: Thripidae), eastern subterranean termite, Reticulitermes flavipes (Blattodea: Rhinotermitidae), and ham mite, Tyrophagus putrescentiae (Schrank) (Acarina: Acaridae) (FIG. 2). Most fumigations were conducted in 1.9-liter glass jars. Confused flour beetle and rice weevil were fumigated in 1.9-liter jars and in 60-liter chambers with corn. Navel orangeworm was fumigated in 21.8 L chambers modified from pressure cookers.
Rice weevil and confused flour beetle were reared on pearled barley and wheat flour diet in jars, respectively. Western flower thrips were reared on lettuce plants in a greenhouse. Spotted wing drosophila was reared on an artificial diet in plastic cups. […]
A filter paper disc was clipped on the port underneath the lid with a metal clip. […] Insect mortality was then scored. Chlorobenzene doses were recorded as microliter liquid per liter of chamber space (ul/l). […]

[4] = test system: western flower thrips, Frankliniella occidentalis; experiment: chlorobenzene fumigation in 1.9-liter jars, western flower thrips larvae and adults; type: in vivo; details: 24 h at 2° C.
Procedure: as §1, with “corn.” for “corn. Navel orangeworm was fumigated in 21.8 L chambers modified from pressure cookers.”
as §2
Larvae and adults of western flower thrips were collected from infested lettuce plants in small vials each containing a piece of lettuce leaf (ca 20/vial) and stored in a refrigerator to cool them down. […] Vapor concentrations of chlorobenzene were measured during fumigation. After fumigation, thrips were kept at 2° C. overnight before mortality was scored. […]

[5] = test system: eastern subterranean termite, Reticulitermes flavipes; experiment: chlorobenzene fumigation in 1.9-liter jars, eastern subterranean termite workers; type: in vivo; details: 50 μl/l dose, 3 h at 21° C.
Procedure: as §4
Rice weevil and confused flour beetle were reared on pearled barley and wheat flour diet in jars, respectively. […]
as §2
Workers of eastern subterranean termites were obtained from a commercial source. […] After fumigation, vials with insects were held in an environmental chamber overnight before mortality was scored. […]

[6] = test system: ham mite, Tyrophagus putrescentiae; experiment: chlorobenzene fumigation in 1.9-liter jars, ham mites on dog food kibbles; type: in vivo; details: 21° C., larvae and adults
Procedure: as §1, §2
Ham mites on infested dog food kibbles were fumigated with chlorobenzene at different doses for 24 and 48 h at 21° C. […] After fumigation, vials with ham mites were held at 21° C. overnight before mortality of larvae and adults was scored. […] Chlorobenzene vapor concentrations were measured during each fumigation. […]

[7] = test system: confused flour beetle; experiment: large-scale chlorobenzene fumigation of corn in a 60-liter chamber, confused flour beetle all life stages; type: in vivo, Tribolium confusum; details: 24 h at 21° C.
Procedure: (§5) Procedure-Large-scale chlorobenzene fumigations of corn with confused flour beetle and rice weevil were conducted in a 60 L fumigation chamber. The chamber was modified from a 60 L diary pot with an added platform at bottom and a vertically positioned air blower to circulate air in the chamber (FIG. 3). A vial with filter paper was positioned near a port on the wall. A total of 20 kg corn was placed in 9 mesh bags. Confused flour beetle adults and other life stage in flour diet and rice weevil adults and other life stages in pearled barley were sealed in small plastic cages with mesh screens on top and bottom for air movement. One cage with confused four beetle culture medium with all life stages and one cage with all life stages of rice weevil were placed in each mesh bag. The bags were packed in the chamber in two layers. The last two containers with confused flour beetle and rice weevil respectively were placed on top of the corn bags. Ten cages for each species were set up to be fumigated. Five cages for each species were used as controls. The chamber was then placed in a fume hood. After the chamber was sealed, 30 ml chlorobenzene was injected into the vial in the chamber and the air blower was turned on to start a fumigation treatment. The fumigation treatment lasted 24 h at 21° C.
(§6) In each fumigation, chlorobenzene vapor concentrations were measured at 2, 4, 6, 9, 21,and 24 h of each treatment using chlorobenzene detector tubes. For each measurement, a 40 ml air sample from the headspace of the chamber was taken and diluted 50-fold in a 1.9 L glass jar. Then, chlorobenzene detectors with a range of 2-500 ppm were used to measure chlorobenzene concentrations. At the end of each fumigation, the lid of the fumigation chamber was removed, and the air blower was kept running for at least 2 h to ventilate the chamber. The corn bags were then removed and containers with insects were recovered. Insects together with diet from each cage were placed in a plastic vial. All adults were removed from each vial and mortality of adults was scored next day. All vials with diet containing other life stages were incubated at 25° C. in an environmental chamber to allow surviving immature individuals to develop and emerge as adults. The vials were checked weekly to count and remove emerged adults to assess mortality of immature stages until there was no adult emergence for two consecutive weeks. A total of three large-scale fumigation tests have been conducted.

[8] = test system: rice weevil; experiment: large-scale chlorobenzene fumigation of corn in a 60-liter chamber, rice weevil all life stages; type: in vivo, Sitophilus oryzae; details: 24 h at 21° C.
Procedure: as §5, §6

[9] = test system: navel orangeworm, Amyelois transitella; experiment: 24 h chlorobenzene fumigation in 21.8-liter chambers, navel orangeworm eggs, larvae and pupae; type: in vivo; details: 24 h at 21° C.; for Larvae Mortality (%) Mean ± SE: 2nd, 4th, 6th instar pooled
Procedure: Procedure-Navel orangeworm eggs, larvae, and pupae were fumigated with chlorobenzene for 24 h at 21° C. in 21.8L chambers modified from pressure cookers to determine effects on mortality. Each chamber has a fan to circulate air. A small container with a piece of filter affixed in it was positioned next to the fan in each chamber as a reservoir for chlorobenzene (FIG. 4). Egg sheet with eggs oviposited during the last 3 days was harvested and cut into small pieces each with about 50 eggs. One piece of egg sheet was placed in a small 49 ml plastic vial and sealed with a screened lid. Larvae of three different ages (2nd, 4th, and 6th) were set up separately in 157 ml plastic vials each containing 3 g diet (10/vial). The vial was sealed with a screened lid. Three chlorobenzene does 50, 100, and 200 μl/l were tested in three chambers. They were achieved by adding 1, 2, and 4 ml of chlorobenzene in reservoirs in three fumigation chambers, respectively. Except for eggs that were only fumigated with chlorobenzene at 100 and 200 μl/l together with larvae and pupae, in each test, 5 vials of eggs, 9 vials of larvae (3 vials for each stage), and 3 vials of pupae were fumigated in one chamber. Controls were also set up for all life stages tested.
After chlorobenzene was added, the chamber was sealed and the fan was turned on to circulate air continuously for the 24 h duration of fumigation. Chlorobenzene detector tubes were used to measure chlorobenzene vapor concentrations 5-6 times between 2 h after start and before the end of fumigations. By the end of fumigation, all chlorobenzene liquid had vaporized in all three treatments. After fumigation, vials with larvae were held at 21° C. overnight before larval mortality was scored. For navel orangeworm eggs, diet was added in each vial and vials were incubated at 25° C. to allow all viable eggs to hatch. After over 10 days, neonate larvae were counted to estimate egg mortality. Pupae were also incubated at 25° C. in an environmental chamber to allow all viable pupae to develop into moths, and moths were then counted to determine pupal mortality. A total of three tests were conducted.

[10] = cited from earlier work
[11] = at 20° C.; cited from earlier work
[12] = air=1; cited from earlier work
[13] = cited from earlier work; remark: listed apart in the source
[14] = 100 μl/l dose (800 ppm vapor concentration), 48-h fumigation
[15] = 150 μl/l dose (1800 ppm vapor concentration), 24-h fumigation
[16] = 30 ml chlorobenzene in 60 L chamber with 20 kg corn
[17] = large-scale fumigations of corn, 60 L chamber

Clc1ccccc1 [chlorobenzene]
mortality of confused flour beetle adults [1, 14]: 100% | mortality of confused flour beetle adults [1, 15]: 100% | mortality of rice weevil adults [2, 14]: 100% | mortality of rice weevil adults [2, 15]: 100% | mortality of spotted wing drosophila flies [3]: 100% | mortality at 370 ppm ([4]; 50 μl/l dose (about 370 ppm)): 95.3% | mortality at 630 ppm ([4]; 75 μl/l dose (about 630 ppm)): 100% | mortality of termite workers [5]: 100% | mortality at 1700 ppm ([6]; 150 μl/l dose (about 1700 ppm), 48-h fumigation): 99.9% | mortality at 2000 ppm ([6]; 200 μl/l dose (about 2000 ppm), 24-h fumigation): 100% | Adults Mortality (%) [7, 16]: 100% | Immature stages Survived to adults ([7]; 30 ml chlorobenzene in 60 L chamber with 20 kg corn, adults emerged from 30 treatment vials): 0 | Immature stages Relative mortality (%) ([7]; 30 ml chlorobenzene in 60 L chamber with 20 kg corn, relative to control by adults emerged): 100% | control of adults and immature life stages of confused flour beetle [7, 17]: Complete control | Adults Mortality (%) [8, 16]: 100% | Immature stages Survived to adults ([8]; 30 ml chlorobenzene in 60 L chamber with 20 kg corn, adults emerged from 30 treatment vials (1645 from 15 control vials)): 73 | Immature stages Relative mortality (%) ([8]; 30 ml chlorobenzene in 60 L chamber with 20 kg corn, relative to control by adults emerged, assuming equal numbers of vials): 97.8% | control of adults of rice weevil [8, 17]: complete control | Pupae Mortality (%) Mean ± SE ([9]; 50 μl/l dose): 7.4 ± 3.8% | Larvae Mortality (%) Mean ± SE ([9]; 50 μl/l dose): 20.4 ± 3.6% | Pupae Mortality (%) Mean ± SE ([9]; 100 μl/l dose): 20.4 ± 5.0% | Larvae Mortality (%) Mean ± SE ([9]; 100 μl/l dose): 69.1 ± 4.6% | Eggs Total neonates ([9]; 100 μl/l dose, 890 eggs (control 370 neonates of 887)): 0 | Pupae Mortality (%) Mean ± SE ([9]; 200 μl/l dose): 43.5% | Larvae Mortality (%) Mean ± SE ([9]; 200 μl/l dose): 95.9 ± 1.3% | Eggs Total neonates ([9]; 200 μl/l dose, 884 eggs (control 370 neonates of 887)): 0 | effect on navel orangeworm eggs ([9]; both doses (100 and 200 μl/l)): All eggs were killed | water solubility [10]: 466.3 µg/mL (≈ 4.14 mM) | vapor pressure [11]: 11.7 mmHg | vapor density relative to air [12]: 3.9 | OSHA exposure limit ([13]; 8-hour workday and 40-hour work week): 75 ppm | oral and dermal toxicity ([13]; EPA category 4): very low | carcinogenicity ([13]; reported): non-carcinogenic
